Reference: paper PMC8345109, “Optimization of New Catalytic Topoisomerase II Inhibitors as an Anti-Cancer Therapy” (Cancers, 2021)

Experiments:
human TOP2A(431-1193) = molecular target: T1, human TOP2A(431-1193) (Homo sapiens, UniProt P11388); assay: Microscale thermophoresis (MST) binding assay; details: 5 nM NT647-labelled TOP2A(431-1193), 0.015-500 µM compound; read-out: Kd, direct TOP2-compound binding (MST)
T1 construct: 6xHis (N); made in house; host or cells: E. coli BL21 (DE3)
Description: It was transformed into BL21 (DE3) E. coli cells and induced by 0.5 mM IPTG for 16 h at 16 °C. Cells were lysed by sonication and protein purification was by chromatography with the Ni-NTA beads (Invitrogen), followed by a size exclusion chromatography (Superdex 200). […] A serial dilution of the inhibitors was prepared with 100% DMSO and subsequently mixed with the labeled fluorescent protein in the assay buffer (20 mM Tris pH 8.0, 100 mM NaCl, 0.1% NP40, 0.2 mM TCEP, and 0.1 mM PMSF) at the final concentrations of 0.015–500 uM. The final concentration of the protein was 5 nM. The labeled protein and small molecules mix were allowed to incubate in the dark at room temperature for 5 min before filling the capillaries. MST assays were performed with 5–20% LED/excitation power and medium MST power using premium capillaries for Monolith NT.115. The data for the estimation of Kd were analyzed using MO Affinity Analysis software from Nanotemper.
(A) Ethidium bromide displacement assays were performed by mixing 100 µg/mL salmon sperm DNA with −/+2 µg/mL ethidium bromide and the indicated compounds. Reactions were subjected to fluorescence emission of 590 nm and excitation of 535 nm. Obtained signals were detected by using the Multimode Microplate Reader (Infinite F500). […] Reactions were subjected to 5–20% LED/excitation power and medium MST power using premium capillaries. Obtained signals were detected by using the Monolith NT.115 system. The change in thermophoresis is expressed as the change in the normalized fluorescence (ΔFnorm). MST assays were repeated with two control compounds, enzalutamide (Enza) and merbarone.

[1] = Crystal formation (precipitation) in cell cultures; type: physicochemical; details: up to 100 uM
Description: Both T637 and T638 have improved solubility in aqueous solution and culture media compared to T60 (Figure 1). […] When cells are growing in the culture media and treated with T60 at concentrations ≥50 uM for two days, T60 will form crystals, likely due to the altered pH values by the cells that induce T60 precipitation. […] These improvements in solubility allow higher doses of compounds to be used to treat cancer cells to reach maximum tumor suppression.

K562 cells [2] = assay: Cytotoxicity by LDH release; details: K562, 0-20 uM, 48 h
Description: (§1) (A) K562 cells were treated with 0, 0.5, 1, 5, 10, 15, and 20 uM of T60 or 0, 0.5, 1, 5, 10, 15, 20, 50, and 100 uM of T637 and T638 for 24, 48, or 72 h. […] (B) NCI-H446 small cell lung cancer line and Hela cervical cancer line were treated with 0, 0.5, 1, 5, 10, 15, and 20 uM of T60 or 0, 0.5, 1, 5, 10, 15, 20, 50, and 100 uM of T637 and T638 for five days. Cell growth rates were measured by using Incucyte^TM. (C) K562 cells were treated with 0, 5, 10, 15, and 20 uM of T60, T637, or T638 for 48 h. Cytotoxicity was evaluated by measuring the LDH levels from the culture media. (D) K562 cells were treated with the vehicle or 10–20 µM of etoposide, T60, T637, or T638 for 4 h. Immunoblotting measured p-H2AXγ levels in cells with vinculin as a loading control.

[3] = system: small cell lung cancer line NCI-H446; assay: NCI-H446 cell growth (Incucyte); details: Homo sapiens, NCI-H446, 120 h, read-out: Cell growth inhibition
Description: as §1

K562 cells [4] = assay: Immunoblotting of p-H2AXγ (DNA damage); details: K562, 10-20 µM, 4 h
Description: as §1

full-length TOP2B = full-length TOP2B (Homo sapiens, UniProt Q02880); assay: DNA cleavage assay, TOP2B; type: biochemical; design: DNA cleavage assays were performed using full-length human TOP2A and TOP2B; details: 200 µM etoposide plus 1, 100 or 200 µM compound, pHOT plasmid
Description: (A) EMSA was performed by purified full-length TOP2A or TOP2B proteins at a contraction of 300 nM with IRDay700 labeled 5ZRF DNA oligo at a concentration of 100 nM in the presence of −/+200 µM of ICRF193, T60, T637, and T638. […] Reactions were subjected to fluorescence […], which were detected by using the Multimode Microplate Reader (Infinite F500). (D) DNA cleavage assays were performed using full-length human TOP2A and TOP2B incubated with the supercoiled pHOT plasmid in the presence of 200 µM of etoposide plus 1, 100, or 200 µM of ICRF193, T60, T637, and T638. Reactions were separated on a DNA gel with ethidium bromide. All experiments were repeated three times, and one representative image was shown. Note: N, nicked DNA; L, linear DNA; and SC, supercoiled DNA.

T1 sequence (P11388 431-1193): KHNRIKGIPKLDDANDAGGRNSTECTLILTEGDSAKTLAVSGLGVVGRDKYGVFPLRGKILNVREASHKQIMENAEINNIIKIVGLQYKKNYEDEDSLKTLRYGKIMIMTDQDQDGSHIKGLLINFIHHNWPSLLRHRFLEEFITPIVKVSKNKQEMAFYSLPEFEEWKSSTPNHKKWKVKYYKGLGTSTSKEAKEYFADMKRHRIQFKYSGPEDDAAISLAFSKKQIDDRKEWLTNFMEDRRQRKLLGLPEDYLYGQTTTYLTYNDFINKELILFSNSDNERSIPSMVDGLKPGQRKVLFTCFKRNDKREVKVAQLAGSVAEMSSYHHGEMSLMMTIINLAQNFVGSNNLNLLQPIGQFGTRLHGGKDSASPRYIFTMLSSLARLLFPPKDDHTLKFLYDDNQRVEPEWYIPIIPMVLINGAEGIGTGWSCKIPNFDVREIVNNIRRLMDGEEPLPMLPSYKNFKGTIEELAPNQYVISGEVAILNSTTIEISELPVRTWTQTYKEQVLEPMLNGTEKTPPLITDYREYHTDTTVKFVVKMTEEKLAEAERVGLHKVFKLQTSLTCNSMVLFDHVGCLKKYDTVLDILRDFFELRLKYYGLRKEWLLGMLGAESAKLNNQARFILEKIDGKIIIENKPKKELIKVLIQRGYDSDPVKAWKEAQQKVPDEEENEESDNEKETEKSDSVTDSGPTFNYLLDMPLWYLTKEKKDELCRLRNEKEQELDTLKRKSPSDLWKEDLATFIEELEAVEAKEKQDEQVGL
Chain of full-length TOP2B (Q02880 whole entry): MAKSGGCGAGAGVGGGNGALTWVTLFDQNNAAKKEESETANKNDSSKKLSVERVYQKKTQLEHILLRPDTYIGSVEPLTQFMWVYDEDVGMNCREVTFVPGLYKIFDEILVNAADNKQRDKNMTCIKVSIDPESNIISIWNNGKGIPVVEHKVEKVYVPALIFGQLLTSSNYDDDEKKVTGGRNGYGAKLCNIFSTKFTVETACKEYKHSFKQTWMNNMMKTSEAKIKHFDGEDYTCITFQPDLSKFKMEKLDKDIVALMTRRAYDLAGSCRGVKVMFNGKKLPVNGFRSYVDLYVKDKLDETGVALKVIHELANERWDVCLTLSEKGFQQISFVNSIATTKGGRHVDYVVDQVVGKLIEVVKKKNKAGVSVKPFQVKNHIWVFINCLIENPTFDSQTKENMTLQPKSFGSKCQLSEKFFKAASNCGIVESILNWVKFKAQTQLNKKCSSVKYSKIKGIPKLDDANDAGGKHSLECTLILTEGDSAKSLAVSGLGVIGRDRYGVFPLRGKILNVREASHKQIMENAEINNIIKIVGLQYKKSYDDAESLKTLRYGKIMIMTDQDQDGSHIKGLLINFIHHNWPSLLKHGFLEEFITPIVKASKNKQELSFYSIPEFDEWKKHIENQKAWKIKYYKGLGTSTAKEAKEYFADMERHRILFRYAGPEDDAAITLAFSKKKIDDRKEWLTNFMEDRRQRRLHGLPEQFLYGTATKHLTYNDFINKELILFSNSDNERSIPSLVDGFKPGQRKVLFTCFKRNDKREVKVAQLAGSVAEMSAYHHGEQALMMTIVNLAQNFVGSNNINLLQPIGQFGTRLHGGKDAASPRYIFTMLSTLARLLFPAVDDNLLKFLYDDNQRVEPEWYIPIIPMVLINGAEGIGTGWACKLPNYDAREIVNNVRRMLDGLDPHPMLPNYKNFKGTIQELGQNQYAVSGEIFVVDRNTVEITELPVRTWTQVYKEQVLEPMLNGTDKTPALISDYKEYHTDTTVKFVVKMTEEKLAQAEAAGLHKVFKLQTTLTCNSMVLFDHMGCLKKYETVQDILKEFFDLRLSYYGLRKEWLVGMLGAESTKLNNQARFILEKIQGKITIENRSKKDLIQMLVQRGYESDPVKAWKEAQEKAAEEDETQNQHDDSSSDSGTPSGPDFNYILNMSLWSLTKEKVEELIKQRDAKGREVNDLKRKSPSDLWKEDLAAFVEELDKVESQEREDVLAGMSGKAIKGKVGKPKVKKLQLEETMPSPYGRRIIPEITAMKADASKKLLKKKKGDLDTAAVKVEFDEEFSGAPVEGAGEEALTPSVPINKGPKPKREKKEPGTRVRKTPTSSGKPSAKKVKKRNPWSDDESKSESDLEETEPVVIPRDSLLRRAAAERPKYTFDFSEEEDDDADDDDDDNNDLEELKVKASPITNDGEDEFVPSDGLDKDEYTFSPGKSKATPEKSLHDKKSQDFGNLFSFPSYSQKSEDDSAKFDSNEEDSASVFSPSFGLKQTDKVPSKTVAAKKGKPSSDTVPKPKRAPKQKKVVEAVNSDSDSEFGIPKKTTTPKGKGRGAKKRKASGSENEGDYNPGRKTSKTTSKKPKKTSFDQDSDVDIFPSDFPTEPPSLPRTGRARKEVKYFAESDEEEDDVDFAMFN

Structure (SMILES): Nc1cc(Nc2ccccc2)ccc1NC(=O)c1ccc[nH]c1=S [T638]
- Kd (human TOP2A(431-1193)): ~87 µM
- Crystal formation in cell cultures, in words [1]: no crystal formation
- Cytotoxicity (LDH release), in words (K562 cells [2]): not observed
- inhibition at 100 µM [3]: 100%
- Intracellular DNA damage (phospho-H2AXγ protein levels) (K562 cells [4]): do not cause intracellular DNA damage
- Prevention of etoposide-induced DNA cleavage, TOP2B (full-length TOP2B): did prevent etoposide-induced DNA cleavage
